“And” between values parts separate entries of the source, which are not always exact repeats. Identical values can stand only once.
Legend:
[1] = test system: HTLV-1 proviral load (PVL); experiment: Peripheral blood PVL before and after oral imatinib in an anti-HTLV-1 antibody-positive CML patient with HAM; type: in vivo, human; conditions: 2844 copies before drug administration, one patient
[2] = test system: HTLV-1 pX (proviral load) in live cells of PBMCs from AC-derived cases; experiment: PMA-HTLV-1 viability PCR, PBMCs from AC-derived cases; type: cell-based
Procedure: PBMCs (1×10^7 cells) from 14 AC-derived cases frozen and preserved in liquid nitrogen were used.
Specimens frozen and preserved in liquid nitrogen were thawed in a water bath at 37° C. and washed twice with approximately 10 mL of PBS at 300×g during centrifugation for 10 minutes, and resuspended in 1 mL of PBS. The cell concentration was counted by the trypan blue exclusion method. Thereafter, each specimen was divided into two groups such that each group includes approximately 100,000 PBMCs. One of the groups was not subjected to PMA treatment, and the other group was subjected to PMA treatment. The sample groups were named “Sample No-Drug-P−” and “Sample No-Drug-P+,” respectively.
A PMA stock solution was added to the sample named “Sample No-Drug-P+” to yield a final concentration of 50 μM in the manner described in Example 2, occasionally shaken under light protection at room temperature for 5 minutes for PMA treatment, and treated with a photo-crosslinker under a halogen lamp for crosslinking during air-cooling for 5 minutes. Genomic DNA was extracted from both samples including the former sample which was not subjected to PMA treatment using DNeazy Blood & Tissue Kits (Cat No 69504, QIAGEN).
RPMI1640 (supplemented with 10% fetal bovine serum, 1% penicillin, and streptomycin) in a volume of 7 mL+α was added to the cell suspension remaining after preparing the two samples in (4-1-2), followed by vortexing. […] After mixing with a shaker for a short period of time, the cells were cultured in a 5% CO2 incubator.
After T=6 h, each specimen was subjected to PMA treatment and crosslinking, and then, genomic DNA was extracted therefrom according to the method described in Example 2.
PMA treatment and DNA extraction were carried out according to the method described in Example 2. Accordingly, 10 samples of genomic DNA from each AC sample to be tested, that is to say, 140 samples from 14 specimens, were prepared.
In this Example, the methods described in Example 2 were used for DNA concentration measurement, working solution preparation, real-time PCR, and the method for calculating PMA-HTLV-1 viability PCR indexes.
All samples were examined at N=14.

[3] = test system: HTLV-1 pX (proviral load) in live cells of PBMCs from HAM cases; experiment: PMA-HTLV-1 viability PCR, PBMCs from HAM cases; type: cell-based; set-up: key to ΔCτ Drug Mean: ΔCτ = CτD−P+ − CτD+P+ (Cτ shift by drug, PMA-treated); conditions: N=16
Procedure: PBMCs from 16 HAM cases frozen and preserved in liquid nitrogen were used.
A PMA stock solution (20 mM, frozen and preserved at −20° C. under light protection) was added to cell samples to yield a final concentration of 50 μM, and the tubes were incubated in a dark place (wrapped in aluminum foil) at room temperature for 5 minutes (each tube was sometimes flicked by fingers for mixing).
A photo-crosslinker and a halogen lamp were always used to perform photo-crosslinking using a household 100-V AC power source. The cell specimen volume was adjusted by appropriately adding PBS to 200 μL and irradiation was carried out for 5 minutes at a position 20 cm away from the halogen lamp in the dark. […] Each sample tube was sometimes flicked by fingers for mixing
Frozen PBMC specimens were thawed in a water bath at 37° C. and washed twice with PBS at 300×g, and then, the pellet was suspended in 1 mL of PBS and placed on ice. The cell concentration was counted by the trypan blue exclusion method using a hemocytometer.
Approximately 5×10^5 to 1×10^6 cells were collected in two Eppendorf tubes and the solution volume was adjusted to 200 μL by adding PBS if appropriate. One of the tubes was subjected to PMA treatment and photo-crosslinking, and the other tube was not treated in the same manner. DNA was extracted from both tubes using DNeasy Blood & Tissue Kits (QIAGEN).
To the remaining liquid of the cell suspension of each cell specimen, approximately 7.5 mL of cell medium RPMI1640 (supplemented with 10% of fetal calf serum and 1% of penicillin-streptomycn) was added to adjust the total volume to 8.0 mL+α. Each mixture was plated in a volume of approximately 2000 μL on a 6-well polystyrene plate such that 4 wells were used per cell specimen.
After adding the drug, each mixture was gently shaken on a shaker and incubation was started at 37° C. in a 5% CO2 incubator.
At T=6 h, about a half volume of the cell suspension of each well was harvested, collected in an Eppendorf tube, and centrifuged at 3,500 rpm×10 min. The supernatant was discarded, and the pellet was resuspended with 1 mL of PBS. Centrifugation was performed again at 3,500 rpm×10 min, and the supernatant was discarded, followed by washing. PBS was added to yield a volume of 200 μL, and all specimens were subjected to PMA treatment and photo-crosslinking. Subsequently, the specimens were washed with PBS again, and DNA was extracted with DNeasy Blood & Tissue Kits (QIAGEN).
The procedures were performed as in the case of T=6 h described in (1-2-5) above. DNA samples were named, for example, “Sample No-Imatinib600 nM-12 h.”
The DNA concentration was measured by ND-1000 (Thermo Fisher Scientific), and DNA was prepared in an amount (10 ng/μL×triplicate or more) sufficient for real-time PCR to be performed in triplicate. DNA was frozen and preserved at −20° C. until use.
According to the protocol (for the PCR system of 25 μL in total) of TaqMan Universal Master Mix II (#4440044, Thermo Fisher Scientific), 20 μM forward and reverse primers, 8 μM TaqMan probes, 2× Universal Master Mix II, and D2 W were mixed. The mixture was pipetted in a volume of 25 μL into each of triplicate wells of a MicroAmp Fast 96-well Reaction Plate (0.1 mL) (REF 4346907, Applied Biosystems) provided with MicroAmp Optical Adhesive Film (P/N 4311971, Applied Biosystems).
A standard dilution series for standard curve creation was prepared from the following five points for pX: NTC (No Template Control); 2 copies/μL (10 copies at 5 μL); 20 copies/μL (100 copies at 5 μL); 200 copies/μL (1000 copies at 5 μL); and […] (10000 copies at 5 μL).
The thermal cycle program was carried out using the StepOne Plus real-time PCR system (Applied Biosystems) and StepOne software ver. 2.3 with 1 cycle in a holding stage at 50° C.×2 minutes and 95° C.×10 minutes and 45 cycles of amplification at 95° C.×15 seconds and 60° C.×1 minute.
Index of the Cτ extension effect by ABL1 inhibitor treatment: ΔCτDrug=CτD−P+−CτD+P+ [Formula 3]

NC-derived non-CD4-PBMCs = conditions: 5 μM, 24-hour treatment, FIG. 2 C/D
[4] = test system: HAM-derived non-CD4-PBMCs; conditions: 5 μM, 24-hour treatment, FIG. 2 C/D
[5] = read-out: Cmax concentration; based on package inserts / in vivo dynamics data; concentration examined in terms of Cmax; cited from earlier work
NC-derived CD4+ T cells = conditions: 5 μM, 24-hour treatment, FIG. 2 A/B

Cc1ccc(NC(=O)c2ccc(CN3CCN(C)CC3)cc2)cc1Nc1nccc(-c2cccnc2)n1 [imatinib]
peripheral blood PVL ([1]; 1 year and 5 months after drug administration): 448 copies/10^4 PBMCs | peripheral blood PVL ([1]; after 5 months of drug administration, oral 400 then 300 mg/day): 1138 copies | pX decrease rate in live cells (%) Mean ([2]; Imatinib 600 nM, 6 h, N=14): 23.83% | ΔCτ Drug Mean ([2]; Imatinib 600 nM, 6 h, N=14): −0.28 | pX decrease rate in live cells (%) Mean ([2]; Imatinib 600 nM, 12 h, N=14): approximately 45% | ΔCτ Drug Mean ([2]; Imatinib 600 nM, 12 h, N=14): −0.98 | pX decrease rate in live cells (%) Mean ([2]; Imatinib 600 nM, 12 h, N=14, listed as Imatinib): 45.46% | pX decrease rate in live cells (%) Mean ([2]; Imatinib 5 μM, 6 h, N=14): 51.65% | ΔCτ Drug Mean ([2]; Imatinib 5 μM, 6 h, N=14): −1.45 | pX decrease rate in live cells (%) Mean ([2]; Imatinib 5 μM, 12 h, N=14): 58.25% | pX decrease rate in live cells (%) Mean ([3]; Imatinib 600 nM, 6 h): 50.35% | ΔCτ Drug Mean ([3]; Imatinib 600 nM, 6 h): −1.30 | pX decrease rate in live cells (%) Mean ([3]; Imatinib 600 nM, 12 h): 66.37% | ΔCτ Drug Mean ([3]; Imatinib 600 nM, 12 h): −1.96 | pX decrease rate in live cells (%) Mean ([3]; Imatinib 5 μM, 6 h): 43.37% | ΔCτ Drug Mean ([3]; Imatinib 5 μM, 6 h): −0.99 | pX decrease rate in live cells (%) Mean ([3]; Imatinib 5 μM, 12 h): 44.99% | ΔCτ Drug Mean ([3]; Imatinib 5 μM, 12 h): −1.49

Cc1cn(-c2cc(NC(=O)c3ccc(C)c(Nc4nccc(-c5cccnc5)n4)c3)cc(C(F)(F)F)c2)cn1 [nilotinib]
cell death of non-CD4-PBMCs, NC (NC-derived non-CD4-PBMCs): significantly observed | cell death of HAM-derived CD4+ T cells (HAM-derived CD4+ T cells): cause cell death to occur | cell death of non-CD4-PBMCs, HAM [4]: significantly observed | Cmax [5]: 3000 nM | pX decrease rate in live cells (%) Mean ([2]; Nilotinib 30 nM, 6 h, N=14): 53.23% | ΔCτ Drug Mean ([2]; Nilotinib 30 nM, 6 h, N=14): −1.26 | pX decrease rate in live cells (%) Mean ([2]; Nilotinib 30 nM, 12 h, N=14): ~71% and 71.38% | ΔCτ Drug Mean ([2]; Nilotinib 30 nM, 12 h, N=14): −1.56 | pX decrease rate in live cells (%) Mean ([2]; Nilotinib 30 nM, 12 h, N=14, listed as Nilotinib): 71.38% | pX decrease rate in live cells (%) Mean ([2]; Nilotinib 3 μM, 6 h, N=14): 50.50% | ΔCτ Drug Mean ([2]; Nilotinib 3 μM, 6 h, N=14): −1.05 | pX decrease rate in live cells (%) Mean ([2]; Nilotinib 3 μM, 12 h, N=14): 58.56% | ΔCτ Drug Mean ([2]; Nilotinib 3 μM, 12 h, N=14): −1.36 | cell death of NC-derived CD4+ T cells (NC-derived CD4+ T cells): cell death does not occur | pX decrease rate in live cells (%) Mean ([3]; Nilotinib 30 nM, 6 h): 69.51% | ΔCτ Drug Mean ([3]; Nilotinib 30 nM, 6 h): −2.03 | pX decrease rate in live cells (%) Mean ([3]; Nilotinib 30 nM, 12 h): 78.00% | ΔCτ Drug Mean ([3]; Nilotinib 30 nM, 12 h): −2.63 | pX decrease rate in live cells (%) Mean ([3]; Nilotinib 3 μM, 6 h): 53.82% | ΔCτ Drug Mean ([3]; Nilotinib 3 μM, 6 h): −0.86 | pX decrease rate in live cells (%) Mean ([3]; Nilotinib 3 μM, 12 h): 36.19% | ΔCτ Drug Mean ([3]; Nilotinib 3 μM, 12 h): −1.46

— patent publication US10772887B2, “Anti-HTLV-1 drug and therapeutic agent for HTLV-1-associated myelopathy/tropical spastic paraparesis (HAM/TSP)” (Kagoshima University, priority 2016, dated 2020)
